# What was measured:
# Mycobacterium avium [1] = settings: isolate MAV3
# Mycobacterium avium [2] = settings: isolate MAV2
# Mycobacterium avium [3] = settings: isolate MAV4
# Description: Inhibition of multidrug resistance efflux pump in Mycobacterium avium isolate MAV4 assessed as potentiation of clarithromycin -induced antibacterial activity by measuring clarithromycin MIC at 1/2 MIC incubated for 3 days by MTT assay
# Mycobacterium avium [4] = settings: 104
# Mycobacterium avium [5] = settings: isolate MAV1
# Mycobacterium avium [6] = settings: isolate MAV4; remark: listed apart in the source
# Mycobacterium avium [7] = settings: isolate MAV3; remark: listed apart in the source
# Mycobacterium avium [8] = settings: isolate MAV2; remark: listed apart in the source
# Description: Inhibition of multidrug resistance efflux pump in Mycobacterium avium isolate MAV2 assessed as potentiation of clarithromycin -induced antibacterial activity by measuring clarithromycin MIC at 1/4 MIC incubated for 3 days by MTT assay (Rvb = >1024 ug/ml)
# Mycobacterium avium [9] = settings: isolate MAV3; remark: listed apart in the source
# Mycobacterium avium [10] = settings: isolate MAV1; remark: listed apart in the source
# [11] = system: Mycobacterium avium subsp. avium ATCC 25291
# Description: Inhibition of multidrug resistance efflux pump in Mycobacterium avium ATCC 25291 assessed as potentiation of clarithromycin -induced antibacterial activity by measuring clarithromycin MIC at 1/4 MIC incubated for 3 days by MTT assay
# [12] = system: Mycobacterium avium subsp. avium ATCC 25291; remark: listed apart in the source
# Description: Inhibition of multidrug resistance efflux pump in Mycobacterium avium ATCC 25291 assessed as potentiation of clarithromycin -induced antibacterial activity by measuring clarithromycin MIC at 1/2 MIC incubated for 3 days by MTT assay
# Mycobacterium avium [13] = settings: 104; remark: listed apart in the source
# Mycobacterium avium [14] = settings: 104 mc'2 4
# Mycobacterium avium [15] = settings: isolate MAV2; remark: listed apart in the source
# Description: Inhibition of multidrug resistance efflux pump in Mycobacterium avium isolate MAV2 assessed as potentiation of ofloxacin-induced antibacterial activity by measuring ofloxacin MIC at 1/2 MIC incubated for 3 days by MTT assay
# [16] = system: Mycobacterium avium subsp. avium ATCC 25291; remark: listed apart in the source
# Description: Inhibition of multidrug resistance efflux pump in Mycobacterium avium ATCC 25291 assessed as potentiation of ethidium bromide-induced antibacterial activity by measuring ethidium bromide MIC at 1/4 MIC incubated for 3 days by MTT assay
# Mycobacterium avium [17] = settings: isolate MAV2; remark: listed apart in the source
# Mycobacterium avium [18] = settings: 104; remark: listed apart in the source
# Mycobacterium avium [19] = settings: isolate MAV3; remark: listed apart in the source
# Mycobacterium avium [20] = settings: 104 mc'2 3
# Mycobacterium avium [21] = settings: isolate MAV3; remark: listed apart in the source
# Mycobacterium avium [22] = settings: isolate MAV1; remark: listed apart in the source
# Description: Inhibition of multidrug resistance efflux pump in Mycobacterium avium isolate MAV1 assessed as potentiation of ciprofloxacin-induced antibacterial activity by measuring ciprofloxacin MIC at 1/2 MIC incubated for 3 days by MTT assay (Rvb = 2 ug/ml)
# Mycobacterium avium [23] = settings: isolate MAV3; remark: listed apart in the source
# Mycobacterium avium [24] = settings: 104 mc'2 3; remark: listed apart in the source
# Mycobacterium avium [25] = settings: in vivo, 72 h
# Description: Antimycobacterial activity against Mycobacterium avium 104 mc'2 4 assessed as reduction in bacterial viability incubated for 3 days by MTT assay
# Mycobacterium avium [26] = settings: isolate MAV3; remark: listed apart in the source
# Mycobacterium avium [27] = settings: isolate MAV2; remark: listed apart in the source
# Mycobacterium avium [28] = settings: 104; remark: listed apart in the source
# Mycobacterium avium [29] = settings: 104 mc'2 3; remark: listed apart in the source
# Mycobacterium avium [30] = settings: 104; remark: listed apart in the source
# Mycobacterium avium [31] = settings: 104 mc'2 3; remark: listed apart in the source
# Mycobacterium avium [32] = settings: 104 mc'2 4; remark: listed apart in the source
# Mycobacterium avium [33] = settings: isolate MAV3; remark: listed apart in the source
# Mycobacterium avium [34] = assay: Antimycobacterial activity against Mycobacterium avium isolate MAV3 assessed as reduction in bacterial viability incubated for 3 days by MTT assay; type: organism-based; settings: 72 h
# Mycobacterium avium [35] = settings: 104 mc'2 4; remark: listed apart in the source
# Mycobacterium avium [36] = settings: isolate MAV2; remark: listed apart in the source
# Mycobacterium avium [37] = settings: 104 mc'2 3; remark: listed apart in the source
# Mycobacterium avium [38] = settings: 104; remark: listed apart in the source
# [39] = system: Mycobacterium avium subsp. avium ATCC 25291; remark: listed apart in the source
# Mycobacterium avium [40] = settings: isolate MAV4; remark: listed apart in the source
# [41] = system: Mycolicibacterium smegmatis; assay: Antimycobacterial activity against Mycobacterium smegmatis str. MC2 155 assessed as reduction in bacterial viability incubated for 3 days by MTT assay; type: organism-based; settings: 72 h
# Mycobacterium avium [42] = settings: isolate MAV4; remark: listed apart in the source
# Mycobacterium avium [43] = settings: isolate MAV1; remark: listed apart in the source
# Mycobacterium avium [44] = settings: isolate MAV1; remark: listed apart in the source
# [45] = system: Mycobacterium avium subsp. avium ATCC 25291; remark: listed apart in the source
# Mycobacterium avium [46] = settings: 104; remark: listed apart in the source
# Description: Inhibition of multidrug resistance efflux pump in Mycobacterium avium 104 assessed as potentiation of clarithromycin -induced antibacterial activity by measuring clarithromycin MIC at 1/2 MIC incubated for 3 days by MTT assay
# Mycobacterium avium [47] = settings: 104 mc'2 4; remark: listed apart in the source
# [48] = Safety index, ratio of CC50 for test compound to CC50 for chlorpromazine for cytotoxicity in human monocyte-derived macrophages; type: cell-based, Macrophage cell line
# Mycobacterium avium [49] = settings: isolate MAV3; remark: listed apart in the source
# Mycobacterium avium [50] = settings: isolate MAV1; remark: listed apart in the source
# Description: Inhibition of multidrug resistance efflux pump in Mycobacterium avium isolate MAV1 assessed as potentiation of ofloxacin-induced antibacterial activity by measuring ofloxacin MIC at 1/4 MIC incubated for 3 days by MTT assay (Rvb = 4 ug/ml)
# Mycobacterium avium [51] = settings: 104; remark: listed apart in the source
# Description: Inhibition of multidrug resistance efflux pump in Mycobacterium avium 104 assessed as potentiation of clarithromycin -induced antibacterial activity by measuring clarithromycin MIC at 1/4 MIC incubated for 3 days by MTT assay
# Mycobacterium avium [52] = settings: 104 mc'2 4; remark: listed apart in the source
# Mycobacterium avium [53] = settings: isolate MAV2; remark: listed apart in the source
# Mycobacterium avium [54] = settings: isolate MAV3; remark: listed apart in the source
# [55] = system: Mycobacterium avium subsp. avium ATCC 25291; remark: listed apart in the source
# Mycobacterium avium [56] = settings: isolate MAV2; remark: listed apart in the source
# Mycobacterium avium [57] = settings: 104 mc'2 3; remark: listed apart in the source
# Mycobacterium avium [58] = settings: 104 mc'2 3; remark: listed apart in the source
# Mycobacterium avium [59] = settings: 104 mc'2 4; remark: listed apart in the source
# Mycobacterium avium [60] = settings: isolate MAV1; remark: listed apart in the source
# Mycobacterium avium [61] = settings: isolate MAV4; remark: listed apart in the source
# Description: Inhibition of multidrug resistance efflux pump in Mycobacterium avium isolate MAV4 assessed as potentiation of clarithromycin -induced antibacterial activity by measuring clarithromycin MIC at 1/4 MIC incubated for 3 days by MTT assay
# Mycobacterium avium [62] = settings: in vivo, 72 h; remark: listed apart in the source
# Description: Antimycobacterial activity against Mycobacterium avium 104 mc'2 3 assessed as reduction in bacterial viability incubated for 3 days by MTT assay
# Mycobacterium avium [63] = settings: 104 mc'2 4; remark: listed apart in the source
# Mycobacterium avium [64] = settings: isolate MAV2; remark: listed apart in the source
# Mycobacterium avium [65] = settings: isolate MAV1; remark: listed apart in the source
# Description: Inhibition of multidrug resistance efflux pump in Mycobacterium avium isolate MAV1 assessed as potentiation of ciprofloxacin-induced antibacterial activity by measuring ciprofloxacin MIC at 1/4 MIC incubated for 3 days by MTT assay
# Mycobacterium avium [66] = settings: isolate MAV4; remark: listed apart in the source
# Mycobacterium avium [67] = assay: Antimycobacterial activity against Mycobacterium avium isolate MAV2 assessed as reduction in bacterial viability incubated for 3 days by MTT assay; type: organism-based; settings: 72 h
# [68] = Safety index, ratio of CC50 for test compound to CC50 for thioridazine for cytotoxicity in human monocyte-derived macrophages; type: cell-based, Macrophage cell line
compound,measurement,setting,value
CCCOc1ccc(-c2cn(CCN3CCCCCC3)c3ccccc3c2=O)cc1,MIC,Mycobacterium avium [1],0.78 µg/mL
same,MIC,Mycobacterium avium [2],256 µg/mL
same,MIC,Mycobacterium avium [3],< 0.0625 µg/mL
same,MIC,Mycobacterium avium [4],4 µg/mL
same,MIC,Mycobacterium avium [5],< 4 µg/mL
same,MIC,Mycobacterium avium [6],8 µg/mL
same,MIC,Mycobacterium avium [7],0.5 µg/mL
same,MIC,Mycobacterium avium [8],256 µg/mL
same,MIC,Mycobacterium avium [9],16 µg/mL
same,MIC,Mycobacterium avium [10],1.56 µg/mL
same,MIC,[11],8 µg/mL
same,MIC,[12],< 0.0625 µg/mL
same,MIC,Mycobacterium avium [13],< 4 µg/mL
same,MIC,Mycobacterium avium [14],< 4 µg/mL
same,MIC,Mycobacterium avium [15],2 µg/mL
same,MIC,[16],6.25 µg/mL
same,MIC,Mycobacterium avium [17],1 µg/mL
same,MIC,Mycobacterium avium [18],< 4 µg/mL
same,MIC,Mycobacterium avium [19],32 µg/mL
same,MIC,Mycobacterium avium [20],< 64 µg/mL
same,MIC,Mycobacterium avium [21],< 4 µg/mL
same,MIC,Mycobacterium avium [22],< 0.031 µg/mL
same,MIC,Mycobacterium avium [23],2 µg/mL
same,MIC,Mycobacterium avium [24],4 µg/mL
same,MIC,Mycobacterium avium [25],256 µg/mL
same,MIC,Mycobacterium avium [26],1 µg/mL
same,MIC,Mycobacterium avium [27],512 µg/mL
same,MIC,Mycobacterium avium [28],< 4 µg/mL
same,MIC,Mycobacterium avium [29],< 4 µg/mL
same,MIC,Mycobacterium avium [30],4 µg/mL
same,MIC,Mycobacterium avium [31],0.78 µg/mL
same,MIC,Mycobacterium avium [32],32 µg/mL
same,MIC,Mycobacterium avium [33],4 µg/mL
same,MIC,Mycobacterium avium [34],128 µg/mL
same,MIC,Mycobacterium avium [35],< 4 µg/mL
same,MIC,Mycobacterium avium [36],< 0.195 µg/mL
same,MIC,Mycobacterium avium [37],128 µg/mL
same,MIC,Mycobacterium avium [38],1 µg/mL
same,MIC,[39],16 µg/mL
same,MIC,Mycobacterium avium [40],2 µg/mL
same,MIC,[41],128 µg/mL
same,MIC,Mycobacterium avium [42],< 0.39 µg/mL
same,MIC,Mycobacterium avium [43],< 0.125 µg/mL
same,MIC,Mycobacterium avium [44],< 0.195 µg/mL
same,MIC,[45],< 0.5 µg/mL
same,MIC,Mycobacterium avium [46],< 0.125 µg/mL
same,MIC,Mycobacterium avium [47],< 0.125 µg/mL
same,selectivity ratio,[48],2 to 4
same,MIC,Mycobacterium avium [49],4 µg/mL
same,MIC,Mycobacterium avium [50],2 µg/mL
same,MIC,Mycobacterium avium [51],1 µg/mL
same,MIC,Mycobacterium avium [52],1 µg/mL
same,MIC,Mycobacterium avium [53],2 µg/mL
same,MIC,Mycobacterium avium [54],32 µg/mL
same,MIC,[55],< 1 µg/mL
same,MIC,Mycobacterium avium [56],32 µg/mL
same,MIC,Mycobacterium avium [57],< 4 µg/mL
same,MIC,Mycobacterium avium [58],< 0.125 µg/mL
same,MIC,Mycobacterium avium [59],32 µg/mL
same,MIC,Mycobacterium avium [60],< 4 µg/mL
same,MIC,Mycobacterium avium [61],4 µg/mL
same,MIC,Mycobacterium avium [62],256 µg/mL
same,MIC,Mycobacterium avium [63],< 0.195 µg/mL
same,MIC,Mycobacterium avium [64],3.12 µg/mL
same,MIC,Mycobacterium avium [65],0.5 µg/mL
same,MIC,Mycobacterium avium [66],16 µg/mL
same,MIC,Mycobacterium avium [67],128 µg/mL
same,selectivity ratio,[68],4 to 6

# — ChEMBL document CHEMBL4130462, “Natural isoflavone biochanin A as a template for the design of new and potent 3-phenylquinolone efflux inhibitors against Mycobacterium avium” (Eur J Med Chem, 2017)
